From US20260049084A1, “ENPP1 MODULATORS AND PRODUCTS AND USES THEREOF” (Gossamer Bio Services, Inc., priority 2022, published 2026)

Assays:
[1] = biological target: Recombinant human ENPP3 protein (Homo sapiens (Human), UniProt O14638); assay: ENPP3 cGAMP Biochemical Assay; details: 70.5 nM ENPP3, 120 μM 2′3′-cGAMP substrate, TR-FRET
Procedure: ENPP3 cGAMP Biochemical Assay
Compounds were added to 384 well Proxiplate (PerkinElmer, Waltham MA) at 100 nl/well from DMSO stocks using Echo (Labcyte, San Jose CA). Recombinant human ENPP3 protein (Acro Biosystems, Newwark DE) was prepared in assay buffer (50 mM Tris pH7.5, 1 mM TCEP pH7.0, 2 mM MgCl2, 2 mM CaCl2), 2 mM ZnCl2 and 0.005% Tween20) and added at 2 μl/well. The plate was sealed, centrifuged at 1000 rpm for 1 minute and incubated at room temperature for 30 minutes before 2 μl substrate 2′3′-cGAMP (R&D Systems, Minneapolis MN) in assay buffer was added to each well to a final concentration of 70.5 nM ENPP3 and 120 μM 2′3′-cGAMP. The plate was sealed and centrifuged at 1000 rpm for 1 minute again. After incubation at 25° C. for 60 minutes, Terbium labelled AMP/GMP antibody and AMP/GMP HiLyte647 Tracer (BellBrook Labs, Fitchburg WI) in detection buffer (50 mM Tris pH7.5, 20 mM EDTA and 0.1% Prionex) were added to the reaction mixture to a final concentration of 475 nM and 3 nM respectively. The assay plate was incubated at room temperature for 120 minutes. TR-FRET signal was detected using Envision (PerkinElmer, Waltham MA).

[2] = biological target: Recombinant human ENPP1 protein (Homo sapiens (Human), UniProt P22413); assay: ENPP1 cGAMP Biochemical Assay; details: 0.5 nM ENPP1, 1000 nM 2′3′-cGAMP substrate, TR-FRET
Procedure: ENPP1 cGAMP Biochemical Assay
Compounds were added to 384 well Proxiplate (PerkinElmer, Waltham MA) at 100 nl/well from DMSO stocks using Echo (Labcyte, San Jose CA). Recombinant human ENPP1 protein (R&D Systems, Minneapolis MN) was prepared in assay buffer (50 mM Tris pH7.5, 1 mM TCEP pH7.0, 2 mM MgCl2 and 0.005% Tween20) and added at 10 μl/well. The plate was sealed, centrifuged at 1000 rpm for 1 minute and incubated at room temperature for 30 minutes before 5 μl substrate 2′3′-cGAMP (R&D Systems, Minneapolis MN) in assay buffer was added to each well to a final concentration of 0.5 nM ENPP1 and 1000 nM 2′3′-cGAMP. The plate was sealed and centrifuged at 1000 rpm for 1 minute again. After incubation at 25° C. for 60 minutes, Terbium labelled AMP/GMP antibody and AMP/GMP HiLyte647 Tracer (BellBrook Labs, Fitchburg WI) in detection buffer (50 mM Tris pH7.5, 20 mM EDTA and 0.1% Prionex) were added to the reaction mixture to a final concentration of 2 nM (5 μl/well). The assay plate was incubated at room temperature for 120 minutes. TR-FRET signal was detected using Envision (PerkinElmer, Waltham MA).

Chain of Recombinant human ENPP1 protein (P22413 whole entry): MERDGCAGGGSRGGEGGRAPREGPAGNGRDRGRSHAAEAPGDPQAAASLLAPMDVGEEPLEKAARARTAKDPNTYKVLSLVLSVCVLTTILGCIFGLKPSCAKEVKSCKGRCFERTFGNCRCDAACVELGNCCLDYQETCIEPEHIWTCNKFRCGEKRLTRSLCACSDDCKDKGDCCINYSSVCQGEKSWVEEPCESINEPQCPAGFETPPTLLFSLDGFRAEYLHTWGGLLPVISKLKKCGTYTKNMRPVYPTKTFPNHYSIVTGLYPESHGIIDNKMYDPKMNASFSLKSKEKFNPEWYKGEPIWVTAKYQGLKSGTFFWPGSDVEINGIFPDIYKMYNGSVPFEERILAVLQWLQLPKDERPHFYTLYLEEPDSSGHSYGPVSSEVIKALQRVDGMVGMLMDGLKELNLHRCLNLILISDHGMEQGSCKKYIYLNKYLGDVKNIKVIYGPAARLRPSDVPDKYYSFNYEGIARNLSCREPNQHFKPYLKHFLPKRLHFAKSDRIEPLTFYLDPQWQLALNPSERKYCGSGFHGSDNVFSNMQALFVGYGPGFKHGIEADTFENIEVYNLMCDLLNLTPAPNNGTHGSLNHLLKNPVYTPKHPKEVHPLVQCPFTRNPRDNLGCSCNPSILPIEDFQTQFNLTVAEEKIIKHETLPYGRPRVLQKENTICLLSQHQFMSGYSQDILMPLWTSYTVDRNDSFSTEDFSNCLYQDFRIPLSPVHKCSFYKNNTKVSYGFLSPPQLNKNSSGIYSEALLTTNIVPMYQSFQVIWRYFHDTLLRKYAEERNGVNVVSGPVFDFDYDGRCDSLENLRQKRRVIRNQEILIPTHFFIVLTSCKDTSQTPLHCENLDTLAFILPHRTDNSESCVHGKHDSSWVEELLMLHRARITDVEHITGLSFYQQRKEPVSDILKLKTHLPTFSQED
Chain of Recombinant human ENPP3 protein (O14638 whole entry): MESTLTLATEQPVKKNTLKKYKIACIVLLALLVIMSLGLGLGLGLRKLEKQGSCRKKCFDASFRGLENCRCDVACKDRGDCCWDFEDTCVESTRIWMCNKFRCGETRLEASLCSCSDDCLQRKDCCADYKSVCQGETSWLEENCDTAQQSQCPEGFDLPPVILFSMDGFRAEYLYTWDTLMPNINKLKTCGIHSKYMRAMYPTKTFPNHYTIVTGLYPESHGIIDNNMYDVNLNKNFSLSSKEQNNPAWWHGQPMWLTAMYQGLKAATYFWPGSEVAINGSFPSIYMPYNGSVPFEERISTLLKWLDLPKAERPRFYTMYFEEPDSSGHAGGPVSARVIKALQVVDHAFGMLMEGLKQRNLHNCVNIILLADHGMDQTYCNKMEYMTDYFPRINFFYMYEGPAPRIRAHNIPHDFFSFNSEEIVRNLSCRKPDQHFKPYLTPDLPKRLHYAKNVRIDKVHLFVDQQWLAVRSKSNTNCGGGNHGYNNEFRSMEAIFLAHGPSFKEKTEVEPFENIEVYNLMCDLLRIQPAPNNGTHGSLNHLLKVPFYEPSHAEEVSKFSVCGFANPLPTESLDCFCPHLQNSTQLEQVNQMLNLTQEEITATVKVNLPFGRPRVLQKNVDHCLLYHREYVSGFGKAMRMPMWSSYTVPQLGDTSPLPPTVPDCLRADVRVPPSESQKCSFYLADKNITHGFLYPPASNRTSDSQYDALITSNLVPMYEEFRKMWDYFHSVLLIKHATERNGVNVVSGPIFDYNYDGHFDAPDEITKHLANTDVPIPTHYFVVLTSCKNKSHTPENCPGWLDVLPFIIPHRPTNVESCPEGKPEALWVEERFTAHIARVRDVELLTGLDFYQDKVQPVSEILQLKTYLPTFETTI

`CCn1nc(Cl)c2c(NCc3ccc(S(=N)(=O)CC)cc3)ccnc21` (stereo not drawn) [Compound 9K, (4-(((3-chloro-1-ethyl-1H-pyrazolo[3,4-b]pyridine-4-yl)amino)methyl)phenyl)(ethyl) (imino)-λ^6-sulfanone] was tested, and the IC50 [1] was 100 to 1000 nM and the IC50 [2] was under 10 nM.

`N#CCn1nc(Cl)c2c(NCC3CCN(S(N)(=O)=NC#N)CC3)ccnc21` (stereo not drawn) [Compound 15B, 4-(((3-chloro-1-(cyanomethyl)-1H-pyrazolo[3,4-b]pyridin-4-yl)amino)methyl)-N′-cyanopiperidine-1-sulfonimidamide] was tested, and the IC50 [1] was under 10 nM and the IC50 [2] was under 10 nM.

`CCn1nc(Cl)c2c(NCC3CCN([S@@](=N)(=O)CCOC)CC3)ccnc21` [Compound 14C, (R)-3-chloro-1-ethyl-N-((1-(2-methoxyethylsulfonimidoyl)piperidin-4-yl)methyl)-1H-pyrazolo[3,4-b]pyridin-4-amine] gave an IC50 [1] of at least 1000 nM and an IC50 [2] of 10 to 100 nM.

With `CCn1ncc2c(Nc3ccc(S(N)(=O)=NCC4CC4)cc3)ccnc21` (stereo not drawn) [Compound 5A, N′-(cyclopropylmethyl)-4-((1-ethyl-1H-pyrazolo [3,4-b]pyridin-4-yl)amino) benzenesulfonimidamide] the IC50 [1] was 100 to 1000 nM and the IC50 [2] was 10 to 100 nM.

In the case of `CN=S(N)(=O)c1ccc(CNc2ccnc3c2c(Cl)nn3CC#N)cc1` (stereo not drawn) [Compound 12B, 4-(((3-chloro-1-(cyanomethyl)-1H-pyrazolo[3,4-b]pyridin-4-yl)amino)methyl)-N′-methylbenzenesulfonimidamide], the IC50 [1] is reported as 100 to 1000 nM and the IC50 [2] is reported as under 10 nM.

For `CN=S(N)(=O)N1CCC(CNc2ccnc3c2c(Cl)nn3CC#N)CC1` (stereo not drawn) [Compound 15A, 4-(((3-chloro-1-(cyanomethyl)-1H-pyrazolo[3,4-b]pyridin-4-yl)amino)methyl)-N′-methylpiperidine-1-sulfonimidamide], the IC50 [1] was 10 to 100 nM and the IC50 [2] was under 10 nM.

Compound `CCn1nc(Cl)c2c(NCc3ccc([S@](C)(=N)=O)cc3)ccnc21` [Compound 9L, (R)-(4-(((3-chloro-1-ethyl-1H-pyrazolo[3,4-b]pyridin-4-yl)amino)methyl)phenyl)(imino) (methyl)-λ^6-sulfanone] has an IC50 [1] of 100 to 1000 nM and an IC50 [2] of under 10 nM.

`C#CCn1nc(Cl)c2c(NCc3ccc(S(C)(=N)=O)cc3)ccnc21` (stereo not drawn) [Compound 9D, (4-(((3-chloro-1-(prop-2-yn-1-yl)-1H-pyrazolo[3,4-b]pyridin-4-yl)amino)methyl)phenyl)(imino)(methyl)-λ6-sulfanone] was tested, and the IC50 [1] was 10 to 100 nM and the IC50 [2] was under 10 nM.

Compound `N#CCn1nc(Cl)c2c(NCc3ccc(S(=N)(N)=O)cc3)ccnc21` (stereo not drawn) [Compound 11B, 4-(((3-chloro-1-(cyanomethyl)-1H-pyrazolo[3,4-b]pyridin-4-yl)amino)methyl)benzenesulfonimidamide] has an IC50 [1] of 100 to 1000 nM and an IC50 [2] of under 10 nM.

Work on `C#CCn1nc(Cl)c2c(NCC3CCN([S@](C)(=O)=NC#N)CC3)ccnc21` [Compound 14J, (R)-N-((4-(((3-chloro-1-(prop-2-yn-1-yl)-1H-pyrazolo[3,4-b]pyridin-4-yl)amino)methyl)piperidin-1-yl)(methyl)(oxo)-λ6-sulfaneylidene)cyanamide] yielded an IC50 [1] of at least 1000 nM and an IC50 [2] of 100 to 1000 nM.

For `CCn1nc(Cl)c2c(NCc3ccc([S@](N)(=O)=NC)cc3)ccnc21` [Compound 12D, (R)-4-(((3-chloro-1-ethyl-1H-pyrazolo[3,4-b]pyridin-4-yl)amino)methyl)-N′-methyl benzenesulfonimidamide], the IC50 [1] was at least 1000 nM and the IC50 [2] was 10 to 100 nM.

`CCn1ncc2c(NCc3ccc([S@](N)(=O)=NC)cc3)ccnc21` [Compound 3F, (R)-4-(((1-ethyl-1H-pyrazolo[3,4-b]pyridin-4-yl)amino)methyl)-N′-methylbenzenesulfonimidamide] gave an IC50 [1] of at least 1000 nM and an IC50 [2] of 100 to 1000 nM.

Compound `C#CCn1nc(Cl)c2c(NCc3ccc(S(=N)(=O)NC)cc3)ccnc21` (stereo in doubt) [Compound 10B, (R)-4-(((3-chloro-1-(prop-2-yn-1-yl)-1H-pyrazolo[3,4-b]pyridin-4-yl)amino)methyl)-N-methylbenzenesulfonimidamide] has an IC50 [1] of at least 1000 nM and an IC50 [2] of under 10 nM.

`CN=S(C)(=O)c1ccc(CNc2ccnc3c2c(Cl)nn3CC#N)cc1` (stereo not drawn) [Compound 10D, 2-(3-chloro-4-((4-(N,S-dimethylsulfonimidoyl)benzyl)amino)-1H-pyrazolo[3,4-b]pyridin-1-yl)acetonitrile] was tested, and the IC50 [1] was at least 1000 nM and the IC50 [2] was 100 to 1000 nM.

`CCn1nc(Cl)c2c(Nc3ccc(S(N)(=O)=NCC4CC4)cc3)ccnc21` (stereo not drawn) [Compound 5F, 4-((3-chloro-1-ethyl-1H-pyrazolo[3,4-b]pyridin-4-yl)amino)-N′-(cyclopropylmethyl)benzene sulfonimidamide] gave an IC50 [1] of 100 to 1000 nM and an IC50 [2] of under 10 nM.

In the case of `CCn1nc(Cl)c2c(Nc3ccc(S(N)(=O)=NC4CC4)cc3)ccnc21` (stereo not drawn) [Compound 5I, 4-((3-chloro-1-ethyl-1H-pyrazolo[3,4-b]pyridin-4-yl)amino)-N′-cyclopropylbenzenesulfonimidamide], the IC50 [1] is reported as at least 1000 nM and the IC50 [2] is reported as under 10 nM.

`CS(=N)(=O)c1ccc(CNc2ccnc3c2c(Cl)nn3CC#N)cc1` (stereo not drawn) [Compound 9F, 2-(3-chloro-4-((4-(S-methylsulfonimidoyl)benzyl)amino)-1H-pyrazolo[3,4-b]pyridin-1-yl)acetonitrile] gave an IC50 [1] of 10 to 100 nM and an IC50 [2] of under 10 nM.

`CCn1ncc2c(NCc3ccc(S(C)(=N)=O)cc3)ccnc21` (stereo not drawn) [Compound 9E, (4-(((1-ethyl-1H-pyrazolo[3,4-b]pyridin-4-yl)amino)methyl)phenyl)(imino)(methyl)-λ6-sulfanone] showed an IC50 [1] of at least 1000 nM and an IC50 [2] of at least 1000 nM.

`CCn1nc(Cl)c2c(NCc3ccc(S(=N)(N)=O)cc3)ccnc21` (stereo not drawn) [Compound 11C, 4-(((3-chloro-1-ethyl-1H-pyrazolo[3,4-b]pyridin-4-yl)amino)methyl)benzenesulfonimidamide] gave an IC50 [1] of at least 1000 nM and an IC50 [2] of under 10 nM.

With `CCn1ncc2c(NCc3ccc(S(=N)(N)=O)cc3)ncnc21` (stereo not drawn) [Compound 2D, 4-(((1-ethyl-1H-pyrazolo[3,4-d]pyrimidin-4-yl)amino)methyl)benzenesulfonimidamide] the IC50 [1] was at least 1000 nM and the IC50 [2] was 10 to 100 nM.

For `C#CCn1nc(Cl)c2c(N(C)Cc3ccc([S@](C)(=N)=O)cc3)ccnc21` [Compound 9B, (R)-(4-(((3-chloro-1-(prop-2-yn-1-yl)-1H-pyrazolo[3,4-b]pyridin-4-yl)(methyl)amino)methyl)phenyl)(imino)(methyl)-λ^6-sulfanone], the IC50 [1] was 10 to 100 nM and the IC50 [2] was under 10 nM.

Compound `C[S@@](=N)(=O)c1ccc(CNc2ccnc3c2c(Cl)nn3CC#N)cc1` [Compound 9H, (R)-2-(3-chloro-4-((4-(S-methylsulfonimidoyl)benzyl)amino)-1H-pyrazolo[3,4-b]pyridin-1-yl)acetonitrile] has an IC50 [1] of 10 to 100 nM and an IC50 [2] of under 10 nM.

`C#CCn1nc(Cl)c2c(N(C)Cc3ccc(S(C)(=N)=O)cc3)ccnc21` (stereo not drawn) [Compound 9A, (4-(((3-chloro-1-(prop-2-yn-1-yl)-1H-pyrazolo [3,4-b]pyridin-4-yl)(methyl)amino)methyl)phenyl)(imino)(methyl)-λ^6-sulfanone] was tested, and the IC50 [1] was 10 to 100 nM and the IC50 [2] was under 10 nM.

For `CS(=N)(=O)c1ccc(COc2ccnc3c2c(Cl)nn3CC#N)cc1` (stereo not drawn) [Compound 8A, 2-(3-chloro-4-((4-(S-methylsulfonimidoyl)benzyl)oxy)-1H-pyrazolo[3,4-b]pyridin-1-yl) acetonitrile], the IC50 [1] was 100 to 1000 nM and the IC50 [2] was under 10 nM.

`CCn1nc(Cl)c2c(NCC3CCN(S(=N)(=O)CCOC)CC3)ccnc21` (stereo not drawn) [Compound 14B, 3-chloro-1-ethyl-N-((1-(2-methoxyethylsulfonimidoyl)piperidin-4-yl)methyl)-1H-pyrazolo[3,4-b]pyridin-4-amine] was tested, and the IC50 [1] was at least 1000 nM and the IC50 [2] was 10 to 100 nM.

In the case of `CCn1nc(Cl)c2c(NCc3ccc(S(=N)(=O)CCOC)cc3)ccnc21` (stereo not drawn) [Compound 9I, (4-(((3-chloro-1-ethyl-1H-pyrazolo[3,4-b]pyridin-4-yl)amino)methyl)phenyl)(imino)(2-methoxyethyl)-λ6-sulfanone], the IC50 [1] is reported as 100 to 1000 nM and the IC50 [2] is reported as under 10 nM.

`C[S@](=N)(=O)c1ccc(CNc2ccnc3c2c(Cl)nn3CC#N)cc1` [Compound 9G, (S)-2-(3-chloro-4-((4-(S-methylsulfonimidoyl)benzyl)amino)-1H-pyrazolo[3,4-b]pyridin-1-yl) acetonitrile] was tested, and the IC50 [1] was at least 1000 nM and the IC50 [2] was 100 to 1000 nM.
